Measured values from EP1534672B1, “RETINOL DERIVATIVES, THEIR USE IN THE TREATMENT OF CANCER AND FOR POTENTIATING THE EFFICACY OF OTHER CYTOTOXIC AGENTS” (priority 2002, dated 2004).
Where two headings read alike, the source gives them in different places.

Columns and labels:
[1] = system: Human Breast Adenocarcinoma Cell Line MDA-MB-231; assay: Drug cytotoxicity testing (viable cell count, trypan blue exclusion, cell growth inhibition); type: cell-based; conditions: for inhibition at 0.1 µM / inhibition at 0.01 µM / inhibition at 0.001 µM: Homo sapiens; for cell growth inhibition in (A) compared to compound in B / cell growth inhibition reached on increase of the concentration, in (B): sodium salt, range 10^-9 to 10^-7 M; for cell growth inhibition reached on increase of the concentration, in (B): dilution in normal saline (B)
Method: MDA-MB-231 cells were propagated in MEM culture medium with 2 mM L-glutamine, 10% heat-inactivated fetal bovine serum (FBS) and antibiotics. DU 145 cells were cultured in MEM culture medium containing 2 mM L-glutamine, 1 mM sodium pyruvate, 10% FBS and antibiotics. SKOV-3 cells were cultured in McCoy's 5A culture medium, supplemented with 1,5 mM L-glutamine, 10% FBS and antibiotics. A549 cells were cultured in Ham's F-12 culture medium with 1 mM L-glutamine, 10% FBS and antibiotics. All media and supplements were purchased from Sigma-Aldrich (St.Louis, MO, USA). Cell propagation of all lines was carried out in Falcon™ 25 cm^2 cultivation flasks (Becton Dickinson Labware).
Drug cytotoxicity testing was carried out with using Falcon™ 96-well cultivation plates for adherent cells (Becton Dickinson Labware). These plates were seeded by cells either at 12 × 10^3 MDA-MB-231 cells/well, or at 12 × 10^3 DU 145 cells/well, or at 14 × 10^3 SKOV-3 cells/well, or at 10 × 10^3 A549 cells/well in a volume of 200 µL/well.
The cell cultures in cultivation plates were allowed to adhere for 24 hour of incubation. On day 1 after cell seeding, 2 µL solutions of the drugs to be tested in medium with 5% FBS was added to the cultures. In the control cultures, 2 µL of medium with 5% FBS was added as solvent control. The cells were incubated for 2 consecutive days. At the end of the incubation period adherent cells were detached by trypsinization and the number of viable cells was counted using trypan blue exclusion test and a hemocytometer. All data were derived from an average of three determinations each in six replicates. The results were expressed as mean cell number ± SE and the differences between control and test series evaluated by means of Student's t-test. The drug cytotoxicity was evaluated based on the extent of cell growth inhibition. The cell growth inhibition of the tested drugs was calculated as follows: Cell growth inhibition,% = (Control-TestSeries)/(Control) × 100 [formula]
In the case of comparative evaluation of cytotoxicity of the inventive compounds themselves and the formulation related to consecutive dilutions of their initial solutions before adding to the cultures, 2 µL solutions of the drugs to be tested in medium with 5% FBS, in normal saline and in saline with 2,3 mM CaCl2 were added to the cultures. In control cultures, 2 µL of medium with 5% FBS, normal saline and saline with 2,3 mM CaCl2 were added as solvent controls (negative controls). […] Therefore an average of negative controls was calculated. […] Therefore an average of positive controls was calculated (for each antibiotic).

[2] = rat, in vivo, ip; for mortality: 100 mg/kg
Method: A single dose i.p. toxicity study in rats was carried out. […] The minimal lethal dose is thus above 100 mg/kg body weight for these compounds.

[3] = MDA-MB-231, 48 h, compound alone, final concentration 10^-7 mol/L, working solutions in MEM with 5% FBS, two days, read-out: cell growth inhibition
[4] = MDA-MB-231, 48 h, compound alone, final concentration 10^-8 mol/L, working solutions in MEM with 5% FBS, two days, read-out: cell growth inhibition
[5] = MDA-MB-231, 48 h, compound alone, final concentration 10^-9 mol/L, working solutions in MEM with 5% FBS, two days, read-out: cell growth inhibition
[6] = MDA-MB-231, compound alone 10^-7 mol/L, in A (saline with […] CaCl2), read-out: cell growth inhibition
[7] = MDA-MB-231, compound alone 10^-7 mol/L, in B (normal saline), read-out: cell growth inhibition
[8] = MDA-MB-231, compound alone 10^-7 mol/L, read-out: Cell growth inhibition in A compared to that in B was increased by
[9] = MDA-MB-231, compound alone 10^-8 mol/L, in A (saline with […] CaCl2), read-out: cell growth inhibition
[10] = MDA-MB-231, compound alone 10^-8 mol/L, in B (normal saline), read-out: cell growth inhibition
[11] = MDA-MB-231, compound alone 10^-8 mol/L, read-out: Cell growth inhibition in A compared to that in B was increased by
[12] = MDA-MB-231, compound alone 10^-9 mol/L, in A (saline with […] CaCl2), read-out: cell growth inhibition
[13] = MDA-MB-231, compound alone 10^-9 mol/L, in B (normal saline), read-out: cell growth inhibition
[14] = MDA-MB-231, compound alone 10^-9 mol/L, read-out: Cell growth inhibition in A compared to that in B was increased by
[15] = compound alone 10^-7 mol/L, in B (normal saline)
[16] = compound alone 10^-8 mol/L, in B (normal saline)
[17] = compound alone 10^-9 mol/L, in B (normal saline)
[18] = compound alone, final concentration 10^-7 mol/L, working solutions in MEM with 5% FBS, two days
[19] = compound alone, final concentration 10^-8 mol/L, working solutions in MEM with 5% FBS, two days
[20] = compound alone, final concentration 10^-9 mol/L, working solutions in MEM with 5% FBS, two days

Compound `CC1=C(/C=C/C(C)=C/C=C/C(C)=C/C(=O)N[C@@H](CS(=O)(=O)O)C(=O)N(C)C)C(C)(C)CCC1` [compound I-1h, N-(all-trans-retinoyl)-L-cysteic acid dimethylamide] has an inhibition at 0.1 µM [1, 3] of 46.4%, an inhibition at 0.01 µM [1, 4] of 39.6% and an inhibition at 0.001 µM [1, 5] of 32%. For the same compound, the inhibition at 0.1 µM [1, 6] was 41.8%, the inhibition at 0.1 µM [1, 7] was 26% and the inhibition at 0.1 µM [1, 8] was 21.3%. It also gave an inhibition at 0.01 µM [1, 9] of 34.2%, an inhibition at 0.01 µM [1, 10] of 17.4% and an inhibition at 0.01 µM [1, 11] of 20.4%. The inhibition at 0.001 µM [1, 12] was 26.7%, the inhibition at 0.001 µM [1, 13] was 7% and the inhibition at 0.001 µM [1, 14] was 21.1%. For the same compound, the “number of viable cells” value [1, 15] was 41.3 ± 0.99 × 10^3, the “number of viable cells” value [1, 16] was 46.1 ± 2.65 × 10^3 and the “number of viable cells” value [1, 17] was 51.9 ± 3.46 × 10^3. For the same compound, the “number of viable cells” value [1, 18] was 30.3 ± 1.55 × 10^3, the “number of viable cells” value [1, 19] was 34.1 ± 1.89 × 10^3 and the “number of viable cells” value [1, 20] was 38.4 ± 2.11 × 10^3. The “cell growth inhibition in (A) compared to compound in B” value [1] was ~21%, the minimal lethal dose [2] was “above 100 mg/kg body weight” and the mortality [2] was “did not produce mortality”.
Compound `COC(=O)[C@H](CCS(=O)(=O)O)NC(=O)/C=C(C)/C=C/C=C(C)/C=C/C1=C(C)CCCC1(C)C` [compound I-3a, N-(all-trans-retinoyl)-L-homocysteic acid methyl ester] has an inhibition at 0.1 µM [1, 3] of 49%, an inhibition at 0.01 µM [1, 4] of 38.2% and an inhibition at 0.001 µM [1, 5] of 29.2%. For the same compound, the “number of viable cells” value [1, 18] was 28.8 ± 1.15 × 10^3, the “number of viable cells” value [1, 19] was 34.9 ± 1.64 × 10^3 and the minimal lethal dose [2] was “above 100 mg/kg body weight”. For the same compound, the mortality [2] was “did not produce mortality”.
Compound `CC1=C(/C=C/C(C)=C/C=C/C(C)=C/C(=O)N[C@@H](CCS(=O)(=O)O)C(N)=O)C(C)(C)CCC1` [compound I-3f, N-(all-trans-retinoyl)-L-homocysteic acid amide] has an inhibition at 0.1 µM [1, 3] of 55.2%, an inhibition at 0.01 µM [1, 4] of 48.7% and an inhibition at 0.001 µM [1, 5] of 41.4%. The inhibition at 0.1 µM [1, 6] was 53.6%, the inhibition at 0.1 µM [1, 7] was 40.8% and the inhibition at 0.1 µM [1, 8] was 21.6%. For the same compound, the inhibition at 0.01 µM [1, 9] was 46.8%, the inhibition at 0.01 µM [1, 10] was 32.1% and the inhibition at 0.01 µM [1, 11] was 21.5%. The inhibition at 0.001 µM [1, 12] was 39%, the inhibition at 0.001 µM [1, 13] was 21.8% and the inhibition at 0.001 µM [1, 14] was 21.9%. For the same compound, the “number of viable cells” value [1, 15] was 32.8 ± 0.99 × 10^3, the “number of viable cells” value [1, 16] was 37.6 ± 1.52 × 10^3 and the “number of viable cells” value [1, 17] was 43.3 ± 2.88 × 10^3. For the same compound, the “number of viable cells” value [1, 18] was 25.3 ± 0.76 × 10^3, the “number of viable cells” value [1, 19] was 29.0 ± 1.32 × 10^3 and the “number of viable cells” value [1, 20] was 33.1 ± 1.90 × 10^3. For the same compound, the “cell growth inhibition in (A) compared to compound in B” value [1] was ~22%, the “cell growth inhibition reached on increase of the concentration, in (B)” value (from here on “cell growth inhibition reached on increase … (B)”) [1] was ~41% and the minimal lethal dose [2] was “above 100 mg/kg body weight”. The mortality [2] was “did not produce mortality”.
For `CC1=C(/C=C/C(C)=C/C=C/C(C)=C\C(=O)N[C@@H](CS(=O)(=O)O)C(N)=O)C(C)(C)CCC1` [compound II-1f, N-(13-cis-retinoyl)-L-cysteic acid amide], the inhibition at 0.1 µM [1, 3] was 53.2%, the inhibition at 0.01 µM [1, 4] was 49.8% and the inhibition at 0.001 µM [1, 5] was 45.1%. It also gave an inhibition at 0.1 µM [1, 7] of 45.8%, an inhibition at 0.1 µM [1, 8] of 15.4% and an inhibition at 0.01 µM [1, 9] of 47.4%. It also gave an inhibition at 0.01 µM [1, 10] of 37.3%, an inhibition at 0.01 µM [1, 11] of 16.1% and an inhibition at 0.001 µM [1, 12] of 40.1%. The inhibition at 0.001 µM [1, 13] was 27.2%, the inhibition at 0.001 µM [1, 14] was 17.7% and the “number of viable cells” value [1, 15] was 31.1 ± 0.96 × 10^3. The “number of viable cells” value [1, 16] was 36.0 ± 1.28 × 10^3, the “number of viable cells” value [1, 17] was 41.8 ± 1.46 × 10^3 and the “number of viable cells” value [1, 18] was 26.6 ± 1.83 × 10^3. The “number of viable cells” value [1, 19] was 28.5 ± 2.13 × 10^3, the “number of viable cells” value [1, 20] was 31.2 ± 2.42 × 10^3 and the “cell growth inhibition in (A) compared to compound in B” value [1] was ~15%. For the same compound, the “cell growth inhibition reached on increase … (B)” value [1] was ~46%, the minimal lethal dose [2] was “above 100 mg/kg body weight” and the mortality [2] was “did not produce mortality”.
Work on `CCOC(=O)[C@H](CCS(=O)(=O)O)NC(=O)\C=C(C)/C=C/C=C(C)/C=C/C1=C(C)CCCC1(C)C` [compound II-3b, N-(13-cis-retinoyl)-L-homocysteic acid ethyl ester] yielded an inhibition at 0.1 µM [1, 3] of 62.1%, an inhibition at 0.01 µM [1, 4] of 55.4% and an inhibition at 0.001 µM [1, 5] of 47.8%. It also gave an inhibition at 0.1 µM [1, 6] of 60.5%, an inhibition at 0.1 µM [1, 7] of 44.4% and an inhibition at 0.1 µM [1, 8] of 28.9%. The inhibition at 0.01 µM [1, 9] was 53.6%, the inhibition at 0.01 µM [1, 10] was 35.7% and the inhibition at 0.01 µM [1, 11] was 27.8%. It also gave an inhibition at 0.001 µM [1, 12] of 46%, an inhibition at 0.001 µM [1, 13] of 25.3% and an inhibition at 0.001 µM [1, 14] of 27.8%. The “number of viable cells” value [1, 15] was 30.8 ± 1.60 × 10^3, the “number of viable cells” value [1, 16] was 35.6 ± 1.97 × 10^3 and the “number of viable cells” value [1, 17] was 41.4 ± 2.15 × 10^3. The “number of viable cells” value [1, 18] was 21.4 ± 0.88 × 10^3, the “number of viable cells” value [1, 19] was 25.2 ± 1.27 × 10^3 and the “number of viable cells” value [1, 20] was 29.5 ± 1.21 × 10^3. For the same compound, the “cell growth inhibition in (A) compared to compound in B” value [1] was ~29%, the “cell growth inhibition reached on increase … (B)” value [1] was ~44% and the minimal lethal dose [2] was “above 100 mg/kg body weight”. For the same compound, the mortality [2] was “did not produce mortality”.
